# According to publication PMC5514901, “Synthesis and evaluation of anthranilamide-based derivatives as FXa inhibitors” (Oncotarget, 2017):
# Tests used:
# human FXa = target: T1, human FXa (Homo sapiens, UniProt P00742); assay: Inhibition activity measurement against FXa (chromogenic substrate CS-11(22)); format: biochemical; details: for Ki / IC50: human FXa; for IC50: chromogenic substrate, 37°C, read at 405 nm; for FXa inhibitory activity (in words): SAR statement in text
# T1 construct: purchased Hyphen BioMed
# T1 sequence (P00742 235-488 limits assumed): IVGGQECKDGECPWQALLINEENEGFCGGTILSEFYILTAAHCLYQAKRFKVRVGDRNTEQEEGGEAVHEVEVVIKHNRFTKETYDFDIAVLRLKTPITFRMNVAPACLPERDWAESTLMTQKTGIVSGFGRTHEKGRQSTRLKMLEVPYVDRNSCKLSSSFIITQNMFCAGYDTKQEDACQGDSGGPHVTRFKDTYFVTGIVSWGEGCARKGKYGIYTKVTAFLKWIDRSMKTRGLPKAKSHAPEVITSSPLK
# T1 sequence (P00742 41-179 partner limits assumed): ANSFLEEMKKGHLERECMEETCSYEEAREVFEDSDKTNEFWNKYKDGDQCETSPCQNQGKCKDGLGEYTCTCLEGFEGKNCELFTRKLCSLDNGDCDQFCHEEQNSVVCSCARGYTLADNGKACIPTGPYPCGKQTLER
# Experimental: The inhibition of FXa was measured using human FXa (Hyphen BioMed, city, Paris, FRA) and chromogenic substrate CS-11(22) (Hyphen BioMed, Paris, FRA) in 384-well microtiter plates at room temperature. […] 2 μL of FXa (56.8 nM), 16 μL of Tris buffer (adjust to pH 7.4 with HCl containing 0.3 M NaCl and 50 mM Tris) and 3 μL of test compound were added to the well, respectively. The negative control was composed of the same mixed solutions except replacing test compound with DMSO. […] After incubated at 37°C for 5 min, 8 μL of FXa substrate solution (3.5 mM) was added and then incubated at 37°C for 25 min. The FXa activity was measured at 405 nm using a SpectraMax M5 (Molecular Devices, Sunnyvale, CA, USA). The IC50 was calculated by the software named SPSS (IBM, North Castle, NY, USA) and the Probit function in it.
# human plasma = assay: Prothrombin time (PT) assay; format: biochemical; details: concentration doubling prothrombin time in human plasma
# Experimental: A commercially available automatic coagulometer (Steellex Science Instrument Co., Ltd., Beijing, China) was employed to measure PT. The clotting times were also measured using the instrument itself, in accordance with the manufacturer's instructions. Increasing concentrations of inhibitor or solvent were added to human plasma and incubated for 3 min at 37°C. Prothrombin time (PT) was determined by automatic coagulometer.
Ki (human FXa) [nM],IC50 (human FXa) [nM],melting point [°C],FXa inhibitory activity (in words) (human FXa),SMILES,2 × PT (Human) (human plasma) [µM]
20.5,28.7,> 250,,"O=C(Nc1ccccc1C(=O)Nc1ccc(-n2ccccc2=O)cc1)c1ccc(Br)s1 [6a, 5-bromo-N-(2-((4-(2-oxopyridin-1(2H)-yl)phenyl)carb-amoyl)phenyl)thiophene-2-carboxamide]",8.4
13.4,18.8,> 250,,"Cc1ccc(NC(=O)c2ccc(Br)s2)c(C(=O)Nc2ccc(-n3ccccc3=O)cc2)c1 [6a-b, 5-bromo-N-(4-methyl-2-((4-(2-oxopyridin-1(2H)-yl)ph-enyl)carbamoyl)phenyl)thiophene-2-carboxamide]",4.2
,125,> 250,,"O=C(Nc1ccc(Cl)cc1C(=O)Nc1ccc(N2CCOCC2=O)cc1)c1ccc(Br)s1 [6a-e, 5-bromo-N-(4-chloro-2-((4-(3-oxomorpholino)phenyl)carbamoyl)phenyl)thiophene-2-carboxamide]",3.8
,> 1000,> 250,,"Cc1cccc(C(=O)Nc2ccc(-n3ccccc3=O)cc2)c1NC(=O)c1ccc(Cl)nc1 [6h-c, 6-chloro-N-(2-methyl-6-((4-(2-oxopyridin-1(2H)-yl)ph-enyl)carbamoyl)phenyl)nicotinamide]",
,> 1000,> 250,,"O=C(Nc1ccccc1C(=O)Nc1ccc(N2CCOCC2=O)cc1)c1ccc(Cl)nc1 [6h-d, 6-chloro-N-(2-((4-(3-oxomorpholino)phenyl)carbamo-yl)phenyl)nicotinamide]",
,781,> 250,,"O=C(Nc1ccc(Cl)cc1C(=O)Nc1ccc(N2CCOCC2=O)cc1)c1ccc(Cl)nc1 [6h-e, 6-chloro-N-(4-chloro-2-((4-(3-oxomorpholino)phenyl)carbamoyl)phenyl)nicotinamide]",
,453,> 250,,"Cc1ccc(NC(=O)c2ccc(Cl)nc2)c(C(=O)Nc2ccc(N3CCOCC3=O)cc2)c1 [6h-f, 6-chloro-N-(4-methyl-2-((4-(3-oxomorpholino)phenyl)carbamoyl)phenyl)nicotinamide]",
,> 1000,> 250,,"Cc1cccc(C(=O)Nc2ccc(N3CCOCC3=O)cc2)c1NC(=O)c1ccc(Cl)nc1 [6h-g, 6-chloro-N-(2-methyl-6-((4-(3-oxomorpholino)phenyl)carbamoyl)phenyl)nicotinamide]",
,> 1000,> 250,,"O=C(Nc1ccccc1C(=O)Nc1ccc(-n2ccccc2=O)cc1)c1ccc(F)c(F)c1 [6i, 3,4-difluoro-N-(2-((4-(2-oxopyridin-1(2H)-yl)phenyl)carbamoyl)phenyl)benzamide]",
,> 1000,> 250,,"O=C(Nc1ccccc1C(=O)Nc1ccc(-n2ccccc2=O)cc1)c1cc(F)c(F)c(F)c1 [6j, 3,4,5-trifluoro-N-(2-((4-(2-oxopyridin-1(2H)-yl)phenyl)arbamoyl)phenyl)benzamide]",
,> 1000,> 250,poor IC50 values at a micromole level,"Cc1cccc(C(=O)Nc2ccc(-n3ccccc3=O)cc2)c1NC(=O)c1ccc(Cl)cc1Cl [6k-c, 2-(2,4-dichlorobenzamido)-3-methyl-N-(4-(2-oxopyrid-in-1(2H)-yl)phenyl)benzamide]",
,128,> 250,,"O=C(Nc1ccccc1C(=O)Nc1ccc(N2CCOCC2=O)cc1)c1ccc(Cl)cc1Cl [6k-d, 2,4-dichloro-N-(2-((4-(3-oxomorpholino)phenyl)carba-moyl)phenyl)benzamide]",
,259,> 250,,"O=C(Nc1ccc(Cl)cc1C(=O)Nc1ccc(N2CCOCC2=O)cc1)c1ccc(Cl)cc1Cl [6k-e, 2,4-dichloro-N-(4-chloro-2-((4-(3-oxomorpholino)phe-nyl)carbamoyl)phenyl)benzamide]",
,282,> 250,,"Cc1ccc(NC(=O)c2ccc(Cl)cc2Cl)c(C(=O)Nc2ccc(N3CCOCC3=O)cc2)c1 [6k-f, 2,4-dichloro-N-(4-methyl-2-((4-(3-oxomorpholino)phe-nyl)carbamoyl)phenyl)benzamide]",
,> 1000,> 250,poor IC50 values at a micromole level,"Cc1cccc(C(=O)Nc2ccc(N3CCOCC3=O)cc2)c1NC(=O)c1ccc(Cl)cc1Cl [6k-g, 2-(2,4-dichlorobenzamido)-3-methyl-N-(4-(3-oxomor-pholino)phenyl)benzamide]",
,181,> 250,,"COc1ccc(C(=O)Nc2ccccc2C(=O)Nc2ccc(-n3ccccc3=O)cc2)cc1 [6l, 2-(4-methoxybenzamido)-N-(4-(2-oxopyridin-1(2H)-yl)phenyl)benzamide]",
,> 1000,> 250,,"COc1ccc(C(=O)Nc2ccc(Cl)cc2C(=O)Nc2ccc(-n3ccccc3=O)cc2)cc1 [6l-a, 5-chloro-2-(4-methoxybenzamido)-N-(4-(2-oxopyridin-1(2H)-yl)phenyl)benzamide]",
,452,> 250,,"COc1ccc(C(=O)Nc2ccc(C)cc2C(=O)Nc2ccc(-n3ccccc3=O)cc2)cc1 [6l-b, 2-(4-methoxybenzamido)-5-methyl-N-(4-(2-oxopyrid-in-1(2H)-yl)phenyl)benzamide]",
,> 1000,> 250,,"COc1ccc(C(=O)Nc2c(C)cccc2C(=O)Nc2ccc(-n3ccccc3=O)cc2)cc1 [6l-c, 2-(4-methoxybenzamido)-3-methyl-N-(4-(2-oxopyrid-in-1(2H)-yl)phenyl)benzamide]",
,459,> 250,,"COc1ccc(C(=O)Nc2ccccc2C(=O)Nc2ccc(N3CCOCC3=O)cc2)cc1 [6l-d, 2-(4-methoxybenzamido)-N-(4-(3-oxomorpholino)phe-nyl)benzamide]",
,485,> 250,,"COc1ccc(C(=O)Nc2ccc(Cl)cc2C(=O)Nc2ccc(N3CCOCC3=O)cc2)cc1 [6l-e, 5-chloro-2-(4-methoxybenzamido)-N-(4-(3-oxomorph-olino)phenyl)benzamide]",
,433,> 250,,"COc1ccc(C(=O)Nc2ccc(C)cc2C(=O)Nc2ccc(N3CCOCC3=O)cc2)cc1 [6l-f, 2-(4-methoxybenzamido)-5-methyl-N-(4-(3-oxomorph-olino)phenyl)benzamide]",
,> 1000,> 250,,"COc1ccc(C(=O)Nc2c(C)cccc2C(=O)Nc2ccc(N3CCOCC3=O)cc2)cc1 [6l-g, 2-(4-methoxybenzamido)-3-methyl-N-(4-(3-oxomorph-olino)phenyl)benzamide]",
,> 1000,> 250,,"COc1ccc(C(=O)Nc2ccccc2C(=O)Nc2ccc(-n3ccccc3=O)cc2)cc1OC [6m, 3,4-dimethoxy-N-(2-((4-(2-oxopyridin-1(2H)-yl)phenyl)arbamoyl)phenyl)benzamide]",
,> 1000,> 250,,"COc1cc(C(=O)Nc2ccccc2C(=O)Nc2ccc(-n3ccccc3=O)cc2)cc(OC)c1OC [6n, 3,4,5-trimethoxy-N-(2-((4-(2-oxopyridin-1(2H)-yl)phenyl)carbamoyl)phenyl)benzamide]",
,> 1000,> 250,,"O=C(Nc1ccccc1C(=O)Nc1ccc(-n2ccccc2=O)cc1)c1ccc(C(F)(F)F)cc1 [6o, N-(4-(2-oxopyridin-1(2H)-yl)phenyl)-2-(4-(trifluoro-methyl)benzamido)benzamide]",
